Measured values as given in patent US20230087361A1, “USE OF DIANTHRONE COMPOUND IN PREPARATION OF MEDICAMENT FOR PREVENTION AND/OR TREATMENT OF MYOCARDIAL ISCHEMIC DISEASE AND RELATED DISEASE THEREOF” (National Institutes for Food and Drug Control, priority 2021, published 2023).

Legend:
[1] = tested on: mice with ISO-induced myocardial ischemia; assay: Serum biomarker for myocardial injury cTn-T (ELISA) in mice with ISO-induced myocardial ischemia; type: in vivo, Kunming mice; conditions: ISO model mice; dianthrone 10 mg/kg intragastric or diltiazem 20 mg/kg intraperitoneal once a day for 10 days; serum 2 h after final ISO; n=7-10
Method: (§1) Male Kunming mice were acclimatized and randomly divided into four groups: a blank control group, an ISO model group, an ISO+diltiazem 20 mg.kg^1 positive control group, and an ISO+dianthrone 10 mgkgi group. Mice in the dianthrone group were intragastrically given the corresponding dose of dianthrone once a day, those in the diltiazem group were intraperitoneally given once a day, and those in the blank control group and the model group were given the same dose of solvent (both of which were 10 mL. kg) for 10 consecutive days. On day 4 of administration, the mice in each group were injected subcutaneously with 40 mg.kg^1 ISO once; the concentration of ISO subcutaneous injection was adjusted to 20 mg.kg^- on days 5 to 10 of administration. All mice were modeled at 2 h after administration. On the final day, the animals were treated at 2 h after ISO administration and modeling. Animal weights were recorded during the experiment. […]
(§2) Assay for biomarker for myocardial injury and myocardial enzyme: The blood was drawn from the orbit of the mouse, let stand at room temperature for 2 h, and centrifuged at 3,500 rpm for 20 min to separate the serum. The serum levels of CK-MB and cTn-T were detected according to the ELISA kit instructions.

[2] = tested on: mice with ISO-induced myocardial ischemia; assay: Serum myocardial enzyme CK-MB (ELISA) in mice with ISO-induced myocardial ischemia; type: in vivo, Kunming mice; conditions: ISO model mice; dianthrone 10 mg/kg intragastric or diltiazem 20 mg/kg intraperitoneal once a day for 10 days; serum 2 h after final ISO; n=7-10
Method: as §1, §2

## COc1ccc([C@@H]2Sc3ccccc3N(CCN(C)C)C(=O)[C@@H]2OC(C)=O)cc1 [Diltiazem, diltiazem]
[1]
  cTn-T (serum): 273.93 ± 36.17 ng/L
[2]
  CK-MB (serum): 7.11 ± 1.63 ng/mL
